Results from patent US20190022239A1, “NOVEL BIOMOLECULE CONJUGATES AND USES THEREFOR” (The University of Western Australia, priority 2016, published 2019).
Ends that are not written are not given here. FAM = fluorescein label (FAM, fluorescein-labelled)

Tests used:
[1] = tested on: hepatocellular carcinoma or breast carcinoma; experiment: FAM-CSG accumulation in tumours after tail vein injection; type: in vivo, mice; conditions: 100 μL of 1 mM i.v., tissue harvested 1 hr after injection
Procedure: Fluorescein-labelled (FAM)-CSG (CSGRRSSKC; SEQ ID NO:1) (100 μL of 1 mM stock made in sterile 1× PBS) was injected into the tail vein of tumour-bearing mice (hepatocellular carcinoma or breast carcinoma, in C3H and BALB/c strains, respectively). Tissue was harvested without perfusion 1 hr after injection and peptide accumulation observed under UV illumination. […] Homing was specific to tumours, with only clearance organs (intestines, kidneys) showing limited accumulation of FAM-CSG.

human breast carcinoma = experiment: Dipping of fresh human breast carcinoma samples in FAM-labelled peptide; type: binding
Procedure: Fresh, untreated samples of human breast carcimoma were dipped, 1 hr post surgery, in 20 μM FAM-CSG for 1 hr, followed by 3×1.5 min washes with 1× PBS.
This absence of binding of PAM-ARA was confirmed using anti-fluorescein antibody (data not shown).

fibrotic tissue = experiment: Binding to liver tissue sections of mice fed choline deficient diet; design: species or system mice (C57BL/6 strain)
Procedure: Mice (C57BL/6 strain) were fed a choline deficient diet, for 4 weeks (early liver fibrosis), 16 weeks (advanced fibrosis-cirrhosis) or 28 weeks (advanced HCC), after which liver tissue was examined. Acetone-fixed fresh frozen 8 μm issue cross sections were incubated with either 1 μM FAM-CSG or 5 μM FAM-ARA for 30 min in 1×PBS buffer at room temperature, FAM-CSG or FAM-ARA binding were confirmed using anti-FITC-HRP antibody staining.

[2] = tested on: plaques from the ApoE null mice; experiment: Incubation of aorta with FAM-labelled peptide; type: binding; conditions: 20 nmol/ml
Procedure: To determine whether CSG also recognises fibroatheroma, healthy aorta from wild type C57BL/6 mice and aorta from ApoE null mice were incubated with 20 nmol/ml fluorescein-labelled FAM-CSG or ARA control.

tumour ECM = experiment: Co-localisation of CSG with ECM markers in tumour tissue sections; type: binding, mouse and human
Procedure: Following incubation of whole tissue (for mouse insulinoma and human breast cancer) or 8 μm tissue cross section, (for mouse and human HCC) with FAM-CSG peptide, tissue cross sections were co-stained with 0.3 μg in 100 μL of anti-nidogen-1 (Rat anti-monoclonal mouse nidogen-1, Millipore) or anti-collagen-1 (Rabbit polyclonal collagen 1, Abeam) markers of ECM, for 1 hr at room temperature. Stained sections were washed 3× with 1×TBS buffer. Tissue sections were re-incubated with donkey anti-Rat or Rabbit IgG (H+L) secondary antibody Alexa 594 (0.4 μg in 100 μL for 30 min. at room temperature), followed by 3×wash with 1×TBS buffer. Co-localisation of CSG with these ECM markers highlights the specificity of CSG binding to tumour ECM (FIG. 2). Co-localisation was not observed in normal healthy tissue.

aorta containing plaque = experiment: In vivo accumulation of FAM-CSG in aorta containing plaque; design: species or system mice; conditions: 1 hr after i.v. injection of 100 μl 1 mM FAM-CSG
occluded arteries = experiment: Dipping assay of occluded arteries from a human patient; type: binding; conditions: occlusive peripheral vascular disease, after limb amputation

FAM-CSG: Fluorescein-labelled (FAM)-CSG (CSGRRSSKC; SEQ ID NO:1) ({FAM}-CSGRRSSKC; cysteine pairing not given here)
peptide accumulation in tumours under UV illumination [1]: accumulates in both tumour types
binding to human breast carcinoma tissue (human breast carcinoma; 20 μM for 1 hr): bound specifically to the tumour tissue and not to normal or marginal tissue
co-localisation with ECM marker nidogen-1 in fibrotic liver (fibrotic tissue; 1 μM, 30 min): co-localised with staining for the ECM marker nidogen-1
binding to normal liver (fibrotic tissue; mice fed normal chow diet): limited binding
binding to aortic plaques [2]: specifically bound to, and accumulated in, plaques

FAM-ARA: control fluorescein-labelled (FAM)-ARA peptide, ARALPSQRSR (SEQ ID NO:5) ({FAM}-ARALPSQRSR) [reference compound]
binding to human breast carcinoma tissue (human breast carcinoma; control peptide): showed no binding to the human breast carcinoma tissue

CSGRRSSKC
effect of preincubation with unlabeled peptide on FAM-CSG accumulation (human breast carcinoma; excess 1 mg unlabeled CSG): abolished the FAM-CSG specific penetration and accumulation in tumours
co-localisation with ECM markers in tumours (tumour ECM; murine insulinoma and HCC, human breast carcinoma and HCC): co-localises with two known ECM markers, collagen-1 and nidogen-1
co-localisation with ECM markers in normal healthy tissue (tumour ECM; normal healthy tissue): not observed
binding to fibrotic liver tissue (fibrotic tissue; 4, 16 or 28 weeks choline deficient diet, 1 μM FAM-CSG, 30 min): effectively binds fibrotic tissue at all stages
co-localisation of in vivo accumulation with ECM marker (aorta containing plaque): co-localises with the ECM marker laminin
binding to human occluded arteries and plaques (occluded arteries): specific binding of CSG to the occluded arteries and specific accumulation of CSG in plaques
